Two compounds from patent US20240383870A1, “HETEROCYCLIC ALDEHYDE TRAPPING COMPOUNDS AND USES THEREOF” (Aldeyra Therapeutics, Inc., priority 2021, published 2024) can be followed below.

Assay type in all cases: in vivo
Experiment [1] concerns IL-7. Kind of experiment: Acute LPS-induced sepsis in C57BL/6 mice: IL-7 cytokine detection assay. As to conditions: LPS-challenged mice, plasma at 6.5 h, unpaired t-test vs vehicle.
The subject of experiment [2] is IL-10. Put plainly: Acute LPS-induced sepsis in C57BL/6 mice: IL-10 cytokine detection assay. As to conditions: 100 mpk IP; LPS-challenged mice, plasma at 6.5 h; unpaired t-test vs vehicle.
The subject of experiment [3] is IL-15. Put plainly: Acute LPS-induced sepsis in C57BL/6 mice: IL-15 cytokine detection assay. As to conditions: LPS-challenged mice, plasma at 6.5 h, unpaired t-test vs vehicle.
The subject of experiment [4] is MCP-1(CCL2). Put plainly: Acute LPS-induced sepsis in C57BL/6 mice: MCP-1(CCL2) cytokine detection assay. The note with it: LPS-challenged mice, plasma at 6.5 h, unpaired t-test vs vehicle.
Experiment [5] has as its system MIP-1a(CCL3). Kind of experiment: Acute LPS-induced sepsis in C57BL/6 mice: MIP-1a(CCL3) cytokine detection assay. As to conditions: 100 mpk IP; LPS-challenged mice, plasma at 6.5 h; unpaired t-test vs vehicle.
Experiment [6] has as its system MIP2(CXCL2). Kind of experiment: Acute LPS-induced sepsis in C57BL/6 mice: MIP2(CXCL2) cytokine detection assay. As to conditions: LPS-challenged mice, plasma at 6.5 h, unpaired t-test vs vehicle. The source says: FIG. 27 is a graph showing the results of a MIP2(CXCL2) cytokine detection assay in samples collected from mouse subjects after administration of compounds of the present disclosure.
(§1) The primary objective of this study was to collect plasma samples of lipopolysaccharide (LPS) challenged C57BL/6 mice after dose of test compounds to provide a cytokine profile as impacted by prophylactic treatments. This study models acute sepsis, which is a systemic inflammatory syndrome initiated by Gram-negative and Gram-positive bacteria and fungi which infect the lungs, abdomen, bloodstream, and renal or genitourinary tracts. Sepsis patients ultimately die of multiorgan failure which is caused by extensive tissue hypo-oxygenation due to ongoing microvascular leakage, disseminated intravascular coagulation, compromised energy production, and metabolic alterations. Sepsis is characterized by an early systemic inflammatory response phase featuring symptoms, such as tachycardia, fever, hyperventilation, and activation of the complement and coagulation cascades. However, it is now appreciated that a compensatory anti-inflammatory response phase follows, characterized by neuroendocrine-mediated immunosuppression. Since these processes are the result of interaction between cells of inflammation and organs, investigation of the treatment of this syndrome requires the use of intact animal models. The use of ten mice per group allows useful statistical modelling of the results.
(§2) For the data shown in Table 2A, 103 mice (female, 18-22 gram, C57BL/6) were purchased from ENVIGO. The mice were housed in 20 cages of 5 mice per cage with 1 cage of 3 mice as extra. The cages had filter tops and autoclaved bedding, and the animals were placed in quarantine with daily inspection. The treatment groups are detailed in Table 2A below. 10 mice were included in each group. […] MC=methyl cellulose.
(§3) For the data shown in Table 2B, 185 mice (female, 18-22 gram, C57BL/6) were purchased from ENVIGO. The mice were housed in 37 cages of 5 mice per cage. The cages had filter tops and autoclaved bedding, and the animals were placed in quarantine with daily inspection. The treatment groups are detailed in Table 2B below. 10 mice were included in each group. The mice were dosed by oral gavage (P0) at 10 ml/kg as per the table below. MC=methyl cellulose.
(§4) At T=0 h, the mice were dosed with one of the test compounds as described in the above table.
(§5) At T=0.5 h, the mice were injected IP with 1.5 mg/kg […] (Sigma).
(§6) At T=6.5 h, all mice were anesthetized and exsanguinated into pre-chilled EDTA-treated tubes. […]
(§7) A 32-plex cytokine panel was obtained from Eve Technologies. Each cytokine was assessed based against a 7 point curve range in duplicate. […]

Experiment [7] deals with eotaxin. Put plainly: Acute LPS-induced sepsis in C57BL/6 mice: eotaxin cytokine detection assay. As to conditions: 200 mpk PO; LPS-challenged mice, plasma at 6.5 h; unpaired t-test vs vehicle.
In experiment [8] the test system is IL-6. Kind of experiment: Acute LPS-induced sepsis in C57BL/6 mice: IL-6 cytokine detection assay. As to conditions: 200 mpk PO; LPS-challenged mice, plasma at 6.5 h; unpaired t-test vs vehicle.
Excerpt: FIG. 11 is a graph showing the results of an IL-6 cytokine detection assay in samples collected from mouse subjects after administration of compounds of the present disclosure.
as §1
(§8) For the data shown in Table 2A, 103 mice (female, 18-22 gram, C57BL/6) were purchased from ENVIGO. The mice were housed in 20 cages of 5 mice per cage with 1 cage of 3 mice as extra. The cages had filter tops and autoclaved bedding, and the animals were placed in quarantine with daily inspection. The treatment groups are detailed in Table 2A below. 10 mice were included in each group. The mice were dosed by oral gavage (PO) at 10 ml/kg as per the table below. MC=methyl cellulose.
as §3, §4, §5, §6, §7

The test system of experiment [9] is IL-13. Kind of experiment: Acute LPS-induced sepsis in C57BL/6 mice: IL-13 cytokine detection assay. As to conditions: 200 mpk PO; LPS-challenged mice, plasma at 6.5 h; unpaired t-test vs vehicle.
Excerpt: FIG. 17 is a graph showing the results of an IL-13 cytokine detection assay in samples collected from mouse subjects after administration of compounds of the present disclosure.
as §1, §8, §3, §4, §5
(§9) At T=6.5 h, all mice were anesthetized and exsanguinated into pre-chilled EDTA-treated tubes. The blood was processed to plasma which was stored in labeled 0.5 polypropylene snap-cap tubes (0.5 mL Eppendorf Safe-Lock Tubes (Fisher Scientific) at −80° C.
(§10) Preparation of vehicle: 1.0 gram of methyl cellulose (Sigma) was dissolved in 200 mL of water (USP purified) to make a solution of 0.5% methyl cellulose in water. Preparation of LPS solution: 6 mg of LPS (from Escherichia Coli 055:B5, Cat #L2880, Sigma Lot #057m4013) was dissolved in 20 ml of saline to give a LPS solution of 0.3 mg/ml. All mice were injected with 5 ml/kg (1.5 mg/kg) at the scheduled time by intraperitoneal injection.
A 32-plex cytokine panel was obtained from Eve Technologies. Each cytokine was assessed based against a 7 point curve range in duplicate. The average of the two replicate analyses was used for statistics. […]

For experiment [10], the system named is IL-17. Kind of experiment: Acute LPS-induced sepsis in C57BL/6 mice: IL-17 cytokine detection assay. As to conditions: 200 mpk PO; LPS-challenged mice, plasma at 6.5 h; unpaired t-test vs vehicle.
Excerpt: FIG. 19 is a graph showing the results of an IL-17 cytokine detection assay in samples collected from mouse subjects after administration of compounds of the present disclosure.
as §1, §2, §3, §4, §5, §6, §7

Experiment [11] has as its system KC. Kind of experiment: Acute LPS-induced sepsis in C57BL/6 mice: KC cytokine detection assay. The note with it: 200 mpk PO; LPS-challenged mice, plasma at 6.5 h; unpaired t-test vs vehicle.
Excerpt: FIG. 20 is a graph showing the results of a KC cytokine detection assay in samples collected from mouse subjects after administration of compounds of the present disclosure.
as §1, §8, §3, §4, §5, §9, §10
A 32-plex cytokine panel was obtained from Eve Technologies. Each cytokine was assessed based against a 7 point curve range in duplicate. The average of the two replicate analyses was used for statistics. Unpaired t-tests were performed using Excel™ contrasting vehicle against each treatment group. One star indicates P<0.05. Two stars indicates P<0.01. Three stars indicates P<0.001. Four stars indicates P<0.0001. Most, but not all, statistically significant results are indicated with star(s).

Experiment [12] relates to leukemia inhibitory factor (LIF). Kind of experiment: Acute LPS-induced sepsis in C57BL/6 mice: leukemia inhibitory factor (LIF) cytokine detection assay. The note with it: 200 mpk PO; LPS-challenged mice, plasma at 6.5 h; unpaired t-test vs vehicle.
Excerpt: FIG. 21 is a graph showing the results of a leukemia inhibitory factor (LIF) cytokine detection assay in samples collected from mouse subjects after administration of compounds of the present disclosure. LIF is an interleukin 6 class cytokine that affects cell growth by inhibiting differentiation.
as §1, §8, §3, §4, §5, §9, §10, §7

Experiment [13] relates to TNFα. Kind of experiment: Acute LPS-induced sepsis in C57BL/6 mice: TNFα cytokine detection assay. The note with it: 200 mpk PO; LPS-challenged mice, plasma at 6.5 h; unpaired t-test vs vehicle.
Excerpt: FIG. 29 is a graph showing the results of a TNFα cytokine detection assay in samples collected from mouse subjects after administration of compounds of the present disclosure.
as §1
For the data shown in Table 2A, 103 mice (female, 18-22 gram, C57BL/6) were purchased from ENVIGO. The mice were housed in 20 cages of 5 mice per cage with 1 cage of 3 mice as extra. The cages had filter tops and autoclaved bedding, and the animals were placed in quarantine with daily inspection. The treatment groups are detailed in Table 2A below. 10 mice were included in each group. The mice were dosed by oral gavage (PO) at 10 ml/kg as per the table below. MC=methyl cellulose. […]
as §7

For `CC(O)(c1cccc2[nH]nc(N)c12)C(F)(F)F` (centres unmarked) [Compound I-9, 2-(3-amino-1H-indazol-4-yl)-1,1,1-trifluoropropan-2-ol], the “IL-7: significant cytokine change vs. vehicle” value in experiment [1] (100 mpk IP) is listed as “*** (Three stars indicates P<0.001)”. Further, the “IL-10: significant cytokine change vs. vehicle” value in [2] is “**** (Four stars indicates P<0.0001)”. Further, the “IL-15: significant cytokine change vs. vehicle” value in experiment [3] (100 mpk IP) is given as “** (Two stars indicates P<0.01)”. Besides, the “MCP-1: significant cytokine change vs. vehicle” value in [4] (100 mpk IP) is “* (One star indicates P<0.05)”. In experiment [5], the “MIP-1a: significant cytokine change vs. vehicle” value is “** (Two stars indicates P<0.01)”. Moreover, in experiment [6] (100 mpk IP), the “MIP-2: significant cytokine change vs. vehicle” value is reported as “* (One star indicates P<0.05)”.

Regarding `CC(O)(c1sc2cccc(Br)c2c1N)C(F)(F)F` (centres unmarked) [Compound I-2, 2-(3-amino-4-bromobenzo[b]thiophen-2-yl)-1,1,1-trifluoropropan-2-ol], the “Eotaxin: significant cytokine change vs. vehicle” value in [7] is listed as “** (Two stars indicates P<0.01)”. For the same compound, the “IL-6: significant cytokine change vs. vehicle” value in [8] is “**** (Four stars indicates P<0.0001)”. Also, the “IL-7: significant cytokine change vs. vehicle” value in experiment [1] (200 mpk PO) is reported as “** (Two stars indicates P<0.01)”. The “IL-13: significant cytokine change vs. vehicle” value in [9] is “**** (Four stars indicates P<0.0001)”. Besides, the “IL-15: significant cytokine change vs. vehicle” value in [3] (200 mpk PO) is listed as “** (Two stars indicates P<0.01)”. Besides, in experiment [10], the “IL-17: significant cytokine change vs. vehicle” value is listed as “*** (Three stars indicates P<0.001)”. For the same compound, the “KC: significant cytokine change vs. vehicle” value in experiment [11] is “*** (Three stars indicates P<0.001)”. In addition, the “LIF: significant cytokine change vs. vehicle” value in [12] is reported as “** (Two stars indicates P<0.01)”. Besides, the “MCP-1: significant cytokine change vs. vehicle” value in experiment [4] (200 mpk PO) is reported as “*** (Three stars indicates P<0.001)”. For the same compound, the “MIP-2: significant cytokine change vs. vehicle” value in experiment [6] (200 mpk PO) is reported as “*** (Three stars indicates P<0.001)”. The “TNFa: significant cytokine change vs. vehicle” value in [13] was “**** (Four stars indicates P<0.0001)”.
